The record followed here is publication PMC3510438, “The transmembrane tyrosines Y56, Y91 and Y167 play important roles in determining the affinity and transport rate of the rabbit proton-coupled peptide transporter PepT1” (The International Journal of Biochemistry & Cell Biology, 2009).

The target in one experiment is T1, wild-type rPepT1 (Oryctolagus cuniculus, UniProt P36836).
T1 construct: expressed in transfected cells; host or cells: Xenopus laevis oocytes injected with cRNA
T1 sequence (P36836 1-707): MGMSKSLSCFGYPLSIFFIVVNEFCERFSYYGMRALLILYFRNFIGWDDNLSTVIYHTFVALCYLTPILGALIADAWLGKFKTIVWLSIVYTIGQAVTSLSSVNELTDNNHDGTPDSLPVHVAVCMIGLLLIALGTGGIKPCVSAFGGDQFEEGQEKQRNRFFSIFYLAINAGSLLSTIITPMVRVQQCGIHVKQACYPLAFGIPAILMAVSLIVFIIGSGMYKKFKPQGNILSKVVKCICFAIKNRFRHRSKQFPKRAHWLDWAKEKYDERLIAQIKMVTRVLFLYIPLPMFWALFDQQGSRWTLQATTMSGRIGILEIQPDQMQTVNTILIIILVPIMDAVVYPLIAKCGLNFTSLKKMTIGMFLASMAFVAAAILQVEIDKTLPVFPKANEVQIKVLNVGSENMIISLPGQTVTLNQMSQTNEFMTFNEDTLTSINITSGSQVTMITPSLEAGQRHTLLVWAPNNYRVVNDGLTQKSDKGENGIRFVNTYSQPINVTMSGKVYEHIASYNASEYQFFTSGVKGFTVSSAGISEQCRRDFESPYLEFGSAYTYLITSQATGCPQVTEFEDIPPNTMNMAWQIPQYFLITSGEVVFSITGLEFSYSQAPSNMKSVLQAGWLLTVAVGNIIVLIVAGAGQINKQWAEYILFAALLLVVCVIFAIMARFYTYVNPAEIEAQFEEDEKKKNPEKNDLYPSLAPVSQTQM
Kind of experiment: Competition of [3H]-D-Phe-L-Gln uptake into Xenopus oocytes, Ki by method of Deves and Boyd. The class given is cell-based, rabbit. Particulars: against 0.4 μM [3H]-D-Phe-L-Gln uptake. The procedure: (§1) rPepT1 constructs were linearised with XbaI (New England Biolabs, UK) and cRNA generated by in vitro transcription (T7 mMessage mMachine, Ambion, Cambridgeshire, UK). Xenopus laevis oocytes were obtained under MS222 anaesthesia (0.2%, w/v) in accordance with the UK Animals (Scientific Procedures) Act, 1986, and maintained at 18 °C in modified Barth's medium (88 mM NaCl, 1 mM KCl, 0.82 mM MgSO4, 2.4 mM NaHCO3, 0.42 mM CaCl2, 10 mM Hepes, 5 mM sodium pyruvate, 50 μg ml^−1 gentamicin (Fluka, Poole, UK), adjusted to pH 7.6 with 1 M NaOH). Transport measurements were performed at least 72 h after micro-injection of oocytes with 27nl cRNA (1 μg/μl), with medium changed daily.
(§2) Uptake of [^3H]-D-Phe-L-Gln (17.4 Ci/mmole, custom synthesised, Cambridge Research Biochemicals, Stockton-on-Tees, UK) was performed as previously described ([Meredith, 2004]). Briefly, 5 oocytes were incubated in 100 μl of uptake medium (95 mM NaCl, 2 mM KCl, 1 mM CaCl2, 0.42 mM MgCl2, 10 mM Tris/Hepes pH 7.4 or Tris/Mes pH 5.5) with tracer (0.4 μM) [^3H]-D-Phe-L-Gln. After incubation, the oocytes were washed sequentially five times in 1 ml of ice-cold 120 mM NaCl solution, lysed individually with 100 μl 2% (w/v) SDS and liquid scintillation counted. As a control non-injected oocytes were also incubated in uptake medium with D-Phe-L-Gln as above.
(§3) The affinity of wild-type and mutant rPepT1 transporters were assessed by competition studies with 0.4 μM [^3H]-D-Phe-L-Gln and Gly-L-Gln present in the uptake medium in concentrations from 0 to 2 mM using the protocol above, and the Ki calculated using the method of [Deves and Boyd (1989)].

Another experiment deals with T2, Y91F-rPepT1 (Oryctolagus cuniculus, UniProt P36836, Y91F).
T2 construct: expressed in transfected cells; host or cells: Xenopus laevis oocytes injected with cRNA
T2 sequence (P36836 1-707 Y91F): T1 sequence (P36836 1-707) with Y91F
Put plainly: Competition of [3H]-D-Phe-L-Gln uptake into Xenopus oocytes, Ki. The class given is cell-based, rabbit. Particulars: against 0.4 μM [3H]-D-Phe-L-Gln uptake. The procedure:
as §1, §2, §3

Structures are written as SMILES. Changes are numbered by the printed parent chain. “And” between values parts separate entries of the source, which are not always exact repeats. Equal entries are not always repeated. Where a SMILES comes first, the peptide text is derived from it.

Take `NCC(=O)N[C@@H](CCC(N)=O)C(=O)O` [Gly-L-Gln] (H-Gly-Gln-OH): the Ki on wild-type rPepT1 (pHout 5.5) was 320 µM and 330 µM; at wild-type rPepT1 (pHout 7.4) it was 110 ± 10 µM; at Y91F-rPepT1 (pHout 5.5), 1400 ± 310 µM; on Y91F-rPepT1 (pHout 7.4), 460 ± 90 µM.
